Experimental data: patent publication US20220133753A1, “COMPOSITIONS AND METHODS USEFUL FOR TREATING DISEASES CHARACTERIZED BY INSUFFICIENT PANTOTHENATE KINASE ACTIVITY” (Comet Therapeutics, Inc., priority 2016, published 2022)
Read-outs that look alike come from different tables or passages of the source.

Assays:
[1] = system: dPANK/fbl RNAi treated Drosophila S2 cells; assay: dPANK/fbl RNA interference in Drosophila S2 cells, rescue by CoA or 4′-phosphopantetheine; type: cell-based; details: compound added to the medium
Protocol: Drosophila S2 Cell Culture, RNA Interference, and CoA and 4′-phosphopantetheine treatment: Drosophila Schneider's S2 cells were maintained at 25° C. in Schneider's Drosophila medium (Invitrogen) supplemented with 10% heat inactivated fetal calf serum (Gibco) and antibiotics (penicillin/streptomycin, Invitrogen) under laboratory conditions. Synthesis of RNAi constructs and RNA interference (dsRNA) treatment was carried out as described previously (Siudeja K et al, EMBO Mol Med 3, 755-766 (2011)). Non-relevant (human gene; hMAZ) dsRNA was used as control. The cells were incubated for 4 days to induce an efficient knock-down. Cells were then subcultured, with or without CoA (Sigma-Aldrich, Cat. No: C4780—which is used for all the experiments wherever stated below) or 4′-phosphopantetheine (PPanSH) at different concentrations and were maintained for additional 3 days until analysis for rescue efficiency of the compounds was performed. The stock solutions of compounds were made in sterile water and stored in −20° C. until use.
Drosophila S2 Cell Immunofluorescence Staining: For immunofluorescence Drosophila S2 cells were seeded on Poly-L-Lysine coated (Sigma-Aldrich) glass microscope slides and allowed to settle for 45 min. Cells were fixed with 3.7% formaldehyde (Sigma Aldrich) for 20 min, washed briefly with PBS+0.1% Triton-X-100 (Sigma Aldrich) and permeabilized with PBS+0.2% Triton-X-100 for 20 min. The slides were incubated in primary antibody (rabbit anti-AcLys, Cell Signaling Cat No: 9441, 1:500) to visualize histone acetylation levels in PBS+0.1% Triton-X-100 overnight and after an additional washing step in PBS+0.1% Triton-X-100 they were incubated in secondary goat anti-rabbit-Alexa488 antibody (Molecular Probes) for two hours at room temperature (RT). F-actin was detected with Rhodamin-Phalloidin (20 U/ml)(Invitrogen) and DNA by staining with DAPI (0.2 ug/ml) (Thermo Scientific). Finally the samples were mounted in 80% glycerol and analyzed using a Leica fluorescence microscope with Leica software. Adobe Photoshop and Illustrator (Adobe Systems Incorporated, San Jose, Calif., USA) were used for image assembly.

[2] = liver extracts, −20° C., after a week; cited from earlier work
[3] = Conversion of CoA in mouse serum by HPLC; type: in vitro ADME
From the text: The conversion of CoA to 4′-phosphopantetheine was further investigated in mouse serum and in human serum.

[4] = system: COASY down-regulated HEK293 cells; assay: Knock-down of COASY by siRNA in HEK293 cells with CoA; type: cell-based, human; details: CoA added to the medium
Protocol: Knock-down of COASY by siRNA in mammalian HEK293 cells: HEK293 were maintained as described above. HEK293 were transfected with 200 nM COASY siRNA (GE Healthcare human COASY 80347 smartpool Cat no: M-006751-00-0010) or non-targeting siRNA (GE Healthcare Cat no: D-001206-13-20) using lipofectamine 2000 (Invitrogen) 4 h after transfection CoA was added in a final concentration of 25 uM. Cells were cultured for 3 days and then harvested for HPLC analysis of total CoA and PPanSH levels and Western blot (histone acetylation) as described below.
Western blot analysis and Antibodies: For Western blot analysis, cells were collected and washed with phosphate buffer saline (PBS), followed by centrifugation. The cells were lysed and sonicated in 1X Laemmli Sample Buffer and boiled for 5 min with 5% β-mercaptoethanol (Sigma). Protein content was determined using DC protein assay (BioRad). Equal amounts of protein were loaded on a 10 or 12.5% SDS-PAGE gel, transferred onto PVDF membranes and blocked with 5% milk in PBS/0.1% Tween, followed by overnight incubation with primary antibodies. […] Appropriate HRP-conjugated secondary antibodies (Amersham) were used and detection was performed using enhanced chemi-luminescence (Pierce cat nog: 32106) and Amersham hyperfilm (GE Healthcare). Band intensities were quantified with Image-studio software.

## CC(C)(COP(=O)(O)OP(=O)(O)OC[C@H]1O[C@@H](n2cnc3c(N)ncnc32)[C@H](O)[C@@H]1OP(=O)(O)O)[C@@H](O)C(=O)NCCC(=O)NCCS [CoA, Coenzyme A]
[1]
  cell count of dPANK/fbl RNAi treated S2 cells: rescued the cell count in a concentration-dependent manner
[1]; immunofluorescence
  histone (protein) acetylation of dPANK/fbl RNAi treated S2 cells: rescued
[2]
  CoA degrades to: 50%
3 h
  CoA, share of the initial concentration still present: > 95%
Bovine (fetal calf)
  conversion of CoA in serum: converted into 4′-phosphopantetheine
Bovine (fetal calf), 30 min
  CoA degraded: 90%
[3]
  conversion of CoA in serum: converted to 4′-phosphopantetheine
[4]
  rescue of COASY RNAi-induced decrease in intracellular CoA levels: neither rescued
